# Where two headings read alike, the source gives them in different places.
# Tests used:
# [1] = test system: ChREBP; test: Gel shift of purified ChREBP after incubation with PKA/PP2A in vitro; format: biochemical, rat; conditions: okadaic acid 10 nM
# Protocol: Gel shift assay. Gel mobility shift assays were performed as described by Liu et al. (Liu et al. (1993) J Biol Chem 268, 12787-12795). Double-stranded oligonucleotides (Table 1) were prepared by mixing equal amounts of the complementary single-stranded DNAs in 50 mM NaCl, heating to 70° C. for 15 min, and cooling to room temperature. The annealed oligonucleotides were labeled with ^32P in the presence of [γ^32P]-ATP (Amersham Pharmacia) and T4 polynucleotide kinase (New England Biolabs). Binding reactions were carried out in reaction mixture containing 20 mM Hepes (pH 7.9), 50 mM KCl, 5 mM DTT, 0.2 mM EDTA, 0.5 mM PMSF, 10% glycerol, 1 μg/μl of poly(dI-dC) (Amersham Pharmacia) and 1 μg/μl of nuclear extract. The reaction mixture was incubated at room temperature for 30 min and DNA-protein complexes were separated by electrophoresis in a 4.5% nondenaturing polyacrylamide gel.
# Purified ChREBP was incubated with PKA and/or PP2A in vitro and measured by gel-shift analysis with the [^32P]-radiolabeled WT oligonucleotide. Purified ChREBP was incubated for 20 min with ATP (1 mM), PKA (0.1 U/μl), 0.2 U/μl PKI, 0.025 U/μl PP2A and the PP2A inhibitor, okadaic acid (10 nM).
# [2] = biological target: T1, cytosolic Xu-5-P activated PPase (Rattus norvegicus, UniProt P63331); test: Protein phosphatase assay, cytosolic Xu-5-P activated PPase of liver; format: biochemical; conditions: for inhibition of cytosolic PPase (MonoQ eluate): okadaic acid concentration not stated (below 10 nM)
# T1 construct: from tissue; host or cells: rat liver cytosolic extract, DEAE-cellulose then Mono Q
# Protocol: Liver was homogenized in a motor-driven Potter-Elvehjem homogenizer in 1 volume of extraction buffer containing 10 mM Hepes (pH 7.9), 10 mM KCl, 0.1 mM EDTA, 0.74 mM spermidine, 0.25 M sucrose, 50 mM imidazole, 1 mM dithiothreitol (DTT), 4 mM phenylmethanesulfonyl fluoride, and 1 mM benzamidine, and the extract was centrifuged at 10,000×g for 30 min.
# (§1) Synthetic peptides corresponding to amino acids #187-201 ([…] “P1” peptide) (SEQ ID NO:64), #556-573 ([…], “P4” peptide) (SEQ ID NO:65), and #655-674 ([…]; “P3” peptide) (SEQ ID NO:66), of ChREBP were prepared by the Peptide Synthesis Service of University of Texas Southwestern Medical Center. These peptides were phosphorylated by 10 U of PKA for 6 h at 30° C. P4 peptide corresponding to 556-573 ([…]) (SEQ ID NO:65), was phosphorylated by 10 U of AMPK for 5 h at 30° C. The reaction mixtures were passed through on a Dowex AG1X8 column (0.5 cm×5 cm) which had been equilibrated with 30% acetic acid to remove residual [^32P]-ATP. The labeled peptides in the pass through fraction were lyophilized.
# (§2) Protein phosphatase activity was determined by the method of Deana et al (Deana et al. (1990) Biochem, Biophys. Acta. 1051: 199-202). The reaction mixture contained in a final volume of 50 μ1,20 mM MOPS, pH 7.0, 1 mM DTT, 25 μg of BSA, and ^32P-labeled substrate for 15 min at 30° C. The reaction was terminated by the addition of 10% trichloroacetic acid. Phosphate released was converted to a phosphomolybdic complex followed by organic solvent (isobutyl alcohol:heptane, 1:1) extraction of the complex. The reaction mixture was mixed thoroughly and centrifuged. An aliquot of the top layer was then added to 5 ml scintillation fluid and counted. One unit of protein phosphatase is defined as that amount which catalyzes the release of 1.0 μmol of ^32P/min at 30° C.
# (§3) These peptides were assayed with Mono Q purified cytosolic and nuclear PPases in the presence and absence of 50 μM Xu-5-P.
# [3] = biological target: T2, nuclear Xu-5-P activated PPase (Rattus norvegicus, UniProt P63331); test: Protein phosphatase assay, nuclear Xu-5-P activated PPase of liver; format: biochemical; conditions: read-out: inhibition of nuclear Xu-5-P-activated PPase (Mono Q eluate); for inhibition at 0.001 µM: 1 nM okadaic acid, P3 substrate
# T2 construct: from tissue; host or cells: rat liver nuclear extract, DEAE-cellulose then Mono Q
# Protocol: Liver nuclear extracts were prepared as described in Example 1.
# as §1, §2, §3
# [4] = biological target: PP2A (Homo sapiens, UniProt P67775); conditions: cited from earlier work
# PP2A, sequence (P67775 whole entry): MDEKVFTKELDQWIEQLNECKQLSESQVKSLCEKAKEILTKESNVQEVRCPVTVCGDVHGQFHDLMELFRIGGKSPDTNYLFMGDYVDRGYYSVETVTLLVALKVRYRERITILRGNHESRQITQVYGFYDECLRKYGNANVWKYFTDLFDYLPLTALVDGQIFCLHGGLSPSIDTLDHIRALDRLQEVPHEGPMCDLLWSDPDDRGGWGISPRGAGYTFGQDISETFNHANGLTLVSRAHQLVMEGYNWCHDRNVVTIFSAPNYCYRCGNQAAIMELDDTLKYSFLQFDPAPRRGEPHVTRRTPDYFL
# T2 sequence (P63331 whole entry): as the sequence (P67775 whole entry) above, with V5L counted along it
# T2 sequence (P56932 whole entry partner): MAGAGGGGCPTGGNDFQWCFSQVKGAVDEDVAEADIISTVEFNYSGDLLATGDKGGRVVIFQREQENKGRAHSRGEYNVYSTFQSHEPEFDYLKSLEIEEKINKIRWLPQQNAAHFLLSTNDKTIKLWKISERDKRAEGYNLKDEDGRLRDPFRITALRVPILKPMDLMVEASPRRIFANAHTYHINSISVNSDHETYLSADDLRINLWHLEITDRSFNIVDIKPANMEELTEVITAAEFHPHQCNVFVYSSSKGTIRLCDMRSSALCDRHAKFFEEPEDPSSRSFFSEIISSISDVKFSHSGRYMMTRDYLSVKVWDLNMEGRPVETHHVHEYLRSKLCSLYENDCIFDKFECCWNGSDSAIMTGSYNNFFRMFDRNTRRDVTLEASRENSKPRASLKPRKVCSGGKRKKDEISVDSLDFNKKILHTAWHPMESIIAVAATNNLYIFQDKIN
# T2 sequence (Q5XI34 1-589 partner): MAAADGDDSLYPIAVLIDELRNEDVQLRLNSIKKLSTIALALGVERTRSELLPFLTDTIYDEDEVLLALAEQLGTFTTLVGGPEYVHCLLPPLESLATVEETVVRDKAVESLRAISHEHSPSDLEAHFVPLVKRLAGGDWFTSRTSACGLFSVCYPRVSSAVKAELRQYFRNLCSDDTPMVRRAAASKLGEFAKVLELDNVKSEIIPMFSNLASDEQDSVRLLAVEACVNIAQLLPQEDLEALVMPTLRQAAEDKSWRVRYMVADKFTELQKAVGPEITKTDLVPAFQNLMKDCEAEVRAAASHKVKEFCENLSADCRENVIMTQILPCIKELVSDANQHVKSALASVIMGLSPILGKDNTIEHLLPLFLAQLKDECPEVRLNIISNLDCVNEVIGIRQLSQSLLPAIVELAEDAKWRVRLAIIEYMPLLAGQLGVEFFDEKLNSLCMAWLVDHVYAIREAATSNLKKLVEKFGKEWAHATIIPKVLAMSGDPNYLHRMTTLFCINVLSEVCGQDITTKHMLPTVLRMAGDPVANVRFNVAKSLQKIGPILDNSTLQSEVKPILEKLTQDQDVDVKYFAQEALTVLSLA
# T1 sequence (P63331 whole entry): as the sequence (P67775 whole entry) above, with V5L counted along it
# T1 sequence (P56932 whole entry partner): as the sequence (P56932 whole entry partner) above
# T1 sequence (Q5XI34 1-589 partner): as the sequence (Q5XI34 1-589 partner) above
smiles,measurement,setting,value
C=C1[C@@H](O)[C@@H]2O[C@]3(CC[C@H](/C=C/[C@@H](C)[C@@H]4CC(C)=C[C@@]5(O[C@H](C[C@@](C)(O)C(=O)O)CC[C@H]5O)O4)O3)CC[C@H]2O[C@@H]1[C@@H](O)C[C@H](C)[C@H]1O[C@@]2(CCCCO2)CC[C@H]1C [okadaic acid],reactivation of phosphorylated ChREBP by PP2A,[1],blocked
same,inhibition of cytosolic PPase (MonoQ eluate),[2]; absence of Xu-5-P,approximately 65%
same,inhibition of cytosolic Xu-5-P activated PPase (in words),"[2]; okadaic acid 10 nM (absence and presence of Xu-5-P), cantharidic acid 500 nM, deltamethrin 300 nM",completely
same,inhibition of cytosolic PPase (MonoQ eluate),[2]; presence of Xu-5-P,~50%
same,inhibition at 0.001 µM,[3]; absence of Xu-5-P,63%
same,inhibition at 0.001 µM,[3]; presence of Xu-5-P,70%
same,inhibition at 0.01 µM,[3]; 10 nM okadaic acid,> 95%
same,IC50,[4],1 nM

# Reference: US20030124590A1, “Carbohydrate response element binding protein and uses thereof” (priority 2001, published 2003)
